Series [1] in a line: Single dose IP pharmacokinetic study in mice. Format: in vivo, CD-1 mice. To be noted: mouse, 10 mg/kg IP, plasma at 0.5, 1, 3, 8 h. How it is done:
CD-1 mice with weights 23–25 g were purchased from Charles River Laboratories.
The animal experiments were performed at Alliance Pharma (Malvern, PA, USA) in accordance with the guide for the care and use of laboratory animals. Alliance Pharma is accredited by the Association for Assessment and Accreditation of Laboratory Animal Care (AAALAC).
The test compounds were dissolved in DMSO and then diluted to the appropriate concentration with the vehicle. For formulation we targeted the minimal amount of DMSO that could be used in combination with a formulation composed of 0.5% HPMC/0.2% Polysorbate 80. […] Blood was collected at t = 0.5, 1, 3, and 8 h and immediately spun for 3 min, the plasma was collected, and compound levels were quantified with HPLC/MS. The raw data are available in the Supplemental Information.
With the probe molecule having favorable selectivity and potency in vitro and in a cellular context, we next wanted to determine its suitability for in vivo experiments. SGC-CAMKK2-1 (5) was progressed to a single dose mouse intraperitoneal (I.P) experiment.

In a further series the target is T1, LATS2 (Homo sapiens, UniProt Q9NRM7).
T1 construct: purchased Eurofins DiscoverX KINOMEscan
Briefly: KINOMEscan 1 μM, LATS2. Format: binding. The settings on record: 1000 nM; Entrez LATS2; read-out: Percent Control. The text has this: (§1) Supplement cells-12-00287-s001.zip/File S2. KinomeScan data for the CAMKK2 probe and negative control.xlsx, sheet "SGC-CAMKK2-1" | column: Percent Control

Series [2] deals with T2, ABL1(Q252H)-nonphosphorylated (Homo sapiens, UniProt P00519, Q252H).
T2 construct: purchased Eurofins DiscoverX KINOMEscan
Briefly: KINOMEscan 1 μM, ABL1(Q252H)-nonphosphorylated. To be noted: 1000 nM; Entrez ABL1; read-out: Percent Control. Type of series: binding.
Excerpt: as §1

The target of the next series is T3, p38-alpha (Homo sapiens, UniProt Q16539).
T3 construct: purchased Eurofins DiscoverX KINOMEscan
T3 sequence (Q16539 whole entry): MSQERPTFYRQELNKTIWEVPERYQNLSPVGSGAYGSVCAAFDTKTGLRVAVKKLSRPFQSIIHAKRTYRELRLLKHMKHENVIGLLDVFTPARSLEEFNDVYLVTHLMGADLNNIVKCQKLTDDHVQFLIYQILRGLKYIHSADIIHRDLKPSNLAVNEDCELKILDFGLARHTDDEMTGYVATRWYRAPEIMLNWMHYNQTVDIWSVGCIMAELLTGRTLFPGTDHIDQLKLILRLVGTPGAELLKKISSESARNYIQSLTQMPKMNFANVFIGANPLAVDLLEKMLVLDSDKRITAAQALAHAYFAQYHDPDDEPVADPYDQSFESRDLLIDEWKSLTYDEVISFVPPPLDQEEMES
Briefly: KINOMEscan 1 μM, p38-alpha. Type of series: binding. The settings on record: 1000 nM; Entrez MAPK14; read-out: Percent Control.
Excerpt: as §1

For the next series, the target named is T4, EPHB2 (Homo sapiens, UniProt P29323).
T4 construct: purchased Eurofins DiscoverX KINOMEscan
T4 sequence (P29323 19-1055): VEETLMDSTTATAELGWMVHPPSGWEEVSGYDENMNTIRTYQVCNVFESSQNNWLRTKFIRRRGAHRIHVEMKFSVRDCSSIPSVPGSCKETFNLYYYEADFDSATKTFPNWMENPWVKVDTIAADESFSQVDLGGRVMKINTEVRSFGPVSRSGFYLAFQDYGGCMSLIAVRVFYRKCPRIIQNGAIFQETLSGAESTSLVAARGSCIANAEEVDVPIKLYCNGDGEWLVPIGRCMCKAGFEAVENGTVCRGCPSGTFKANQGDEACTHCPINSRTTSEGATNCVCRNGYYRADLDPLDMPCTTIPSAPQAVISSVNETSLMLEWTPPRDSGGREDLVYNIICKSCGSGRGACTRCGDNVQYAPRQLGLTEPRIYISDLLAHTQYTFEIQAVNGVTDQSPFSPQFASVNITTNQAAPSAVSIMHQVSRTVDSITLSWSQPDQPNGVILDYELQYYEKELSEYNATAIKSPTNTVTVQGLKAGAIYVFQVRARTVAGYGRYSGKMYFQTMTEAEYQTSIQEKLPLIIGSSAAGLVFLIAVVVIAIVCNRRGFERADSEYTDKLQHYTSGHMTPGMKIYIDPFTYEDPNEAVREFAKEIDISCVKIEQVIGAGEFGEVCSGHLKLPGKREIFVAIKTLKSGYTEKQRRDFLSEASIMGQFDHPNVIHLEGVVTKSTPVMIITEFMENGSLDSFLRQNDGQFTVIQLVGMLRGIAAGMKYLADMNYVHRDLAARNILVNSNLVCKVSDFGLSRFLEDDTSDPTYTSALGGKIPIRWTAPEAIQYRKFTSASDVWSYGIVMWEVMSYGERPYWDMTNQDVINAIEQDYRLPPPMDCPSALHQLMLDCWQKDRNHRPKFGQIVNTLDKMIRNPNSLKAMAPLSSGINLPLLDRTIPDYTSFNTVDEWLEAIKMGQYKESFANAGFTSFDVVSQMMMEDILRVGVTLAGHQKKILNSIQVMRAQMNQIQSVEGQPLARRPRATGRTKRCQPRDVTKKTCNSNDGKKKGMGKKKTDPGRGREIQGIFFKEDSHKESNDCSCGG
Kind of series: KINOMEscan 1 μM, EPHB2. Type of series: binding. To be noted: 1000 nM; Entrez EPHB2; read-out: Percent Control.
Excerpt: as §1

In another series the target is T5, EPHA3 (Homo sapiens, UniProt P29320).
T5 construct: purchased Eurofins DiscoverX KINOMEscan
Kind of series: KINOMEscan 1 μM, EPHA3. Format: binding. The settings on record: 1000 nM; Entrez EPHA3; read-out: Percent Control.
Excerpt: as §1

The target of another series is T6, MARK3 (Homo sapiens, UniProt P27448).
T6 construct: purchased Eurofins DiscoverX KINOMEscan
Briefly: KINOMEscan 1 μM, MARK3. Format: binding. To be noted: 1000 nM; Entrez MARK3; read-out: Percent Control.
Excerpt: as §1

A further series addresses T7, PRKG2 (Homo sapiens, UniProt Q13237).
T7 construct: purchased Eurofins DiscoverX KINOMEscan
Kind of series: KINOMEscan 1 μM, PRKG2. Type of series: binding. The settings on record: 1000 nM; Entrez PRKG2; read-out: Percent Control.
Excerpt: as §1

The target of the next series is T8, STK33 (Homo sapiens, UniProt Q9BYT3).
T8 construct: purchased Eurofins DiscoverX KINOMEscan
T8 sequence (Q9BYT3 whole entry): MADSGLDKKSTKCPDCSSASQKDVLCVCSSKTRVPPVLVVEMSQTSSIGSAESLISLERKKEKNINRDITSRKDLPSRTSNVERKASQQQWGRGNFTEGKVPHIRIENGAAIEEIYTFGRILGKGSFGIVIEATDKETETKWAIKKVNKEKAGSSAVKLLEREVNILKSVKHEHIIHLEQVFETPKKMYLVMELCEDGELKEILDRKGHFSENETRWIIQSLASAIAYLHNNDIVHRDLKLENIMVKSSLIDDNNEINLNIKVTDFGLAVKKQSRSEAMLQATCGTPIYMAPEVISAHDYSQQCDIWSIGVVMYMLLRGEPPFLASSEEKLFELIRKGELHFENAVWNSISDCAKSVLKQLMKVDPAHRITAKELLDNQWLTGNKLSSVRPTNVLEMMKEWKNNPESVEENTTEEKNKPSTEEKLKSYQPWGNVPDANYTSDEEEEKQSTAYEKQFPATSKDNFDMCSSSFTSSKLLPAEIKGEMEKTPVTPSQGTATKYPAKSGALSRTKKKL
Briefly: KINOMEscan 1 μM, STK33. Format: binding. To be noted: 1000 nM; Entrez STK33; read-out: Percent Control.
Excerpt: as §1

In the next series the target is T9, ACVR1 (Homo sapiens, UniProt Q04771).
T9 construct: purchased Eurofins DiscoverX KINOMEscan
T9 sequence (Q04771 21-509): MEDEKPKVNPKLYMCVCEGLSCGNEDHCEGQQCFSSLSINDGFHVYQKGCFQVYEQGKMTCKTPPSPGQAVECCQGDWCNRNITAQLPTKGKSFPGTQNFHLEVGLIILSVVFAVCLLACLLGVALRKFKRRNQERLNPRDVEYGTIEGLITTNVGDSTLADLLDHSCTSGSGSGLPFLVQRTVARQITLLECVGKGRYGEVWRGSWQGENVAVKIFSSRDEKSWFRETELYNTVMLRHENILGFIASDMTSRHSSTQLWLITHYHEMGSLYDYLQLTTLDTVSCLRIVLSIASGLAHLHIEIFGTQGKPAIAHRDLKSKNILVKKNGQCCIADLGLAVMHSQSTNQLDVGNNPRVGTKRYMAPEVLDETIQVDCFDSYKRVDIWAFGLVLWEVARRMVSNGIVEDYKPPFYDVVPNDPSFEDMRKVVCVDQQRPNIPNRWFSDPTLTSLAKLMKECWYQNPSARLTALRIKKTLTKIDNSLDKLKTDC
Kind of series: KINOMEscan 1 μM, ACVR1. Type of series: binding. The settings on record: 1000 nM; Entrez ACVR1; read-out: Percent Control.
Excerpt: as §1

The next series addresses T10, TSSK1B (Homo sapiens, UniProt Q9BXA7).
T10 construct: purchased Eurofins DiscoverX KINOMEscan
Briefly: DiscoverX KINOMEscan binding assay at 1 μM, TSSK1B. To be noted: Compound Concentration 1000 nM, read-out: Percent Control.
Excerpt: as §1

The target of the next series is T11, SLK (Homo sapiens, UniProt Q9H2G2).
T11 construct: purchased Eurofins DiscoverX KINOMEscan
Kind of series: KINOMEscan 1 μM, SLK. Type of series: binding. The settings on record: 1000 nM; Entrez SLK; read-out: Percent Control.
Excerpt: as §1

The target of another series is T12, PIK3CA(M1043I) (Homo sapiens, UniProt P42336, M1043I).
T12 construct: purchased Eurofins DiscoverX KINOMEscan
T12 sequence (P42336 whole entry M1043I): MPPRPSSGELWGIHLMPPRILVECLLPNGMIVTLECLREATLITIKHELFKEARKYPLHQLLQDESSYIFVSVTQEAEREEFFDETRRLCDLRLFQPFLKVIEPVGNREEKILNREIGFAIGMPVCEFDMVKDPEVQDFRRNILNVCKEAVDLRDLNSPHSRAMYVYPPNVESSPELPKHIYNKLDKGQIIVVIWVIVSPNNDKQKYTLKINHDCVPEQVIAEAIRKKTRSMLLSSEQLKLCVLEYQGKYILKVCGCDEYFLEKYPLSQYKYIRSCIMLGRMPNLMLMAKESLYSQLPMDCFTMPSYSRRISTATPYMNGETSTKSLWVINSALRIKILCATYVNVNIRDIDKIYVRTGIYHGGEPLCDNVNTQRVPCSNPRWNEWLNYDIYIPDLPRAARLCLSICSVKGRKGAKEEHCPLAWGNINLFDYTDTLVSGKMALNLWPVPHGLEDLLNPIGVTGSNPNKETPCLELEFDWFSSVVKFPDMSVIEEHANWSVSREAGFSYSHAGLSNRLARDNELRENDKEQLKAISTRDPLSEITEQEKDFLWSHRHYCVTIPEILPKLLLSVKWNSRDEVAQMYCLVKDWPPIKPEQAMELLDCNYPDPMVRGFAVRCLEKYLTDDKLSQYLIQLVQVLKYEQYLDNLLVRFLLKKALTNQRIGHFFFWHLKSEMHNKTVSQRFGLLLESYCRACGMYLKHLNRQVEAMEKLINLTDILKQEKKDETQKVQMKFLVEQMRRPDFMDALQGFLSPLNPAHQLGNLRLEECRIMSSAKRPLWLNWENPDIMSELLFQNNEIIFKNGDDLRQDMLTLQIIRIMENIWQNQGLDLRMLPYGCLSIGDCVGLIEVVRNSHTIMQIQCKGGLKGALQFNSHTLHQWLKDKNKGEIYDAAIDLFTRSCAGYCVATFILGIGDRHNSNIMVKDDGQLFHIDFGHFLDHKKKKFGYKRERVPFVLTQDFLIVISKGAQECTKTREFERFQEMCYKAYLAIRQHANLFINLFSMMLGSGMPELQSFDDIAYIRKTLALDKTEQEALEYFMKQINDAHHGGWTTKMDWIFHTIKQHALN
Briefly: DiscoverX KINOMEscan binding assay at 1 μM, PIK3CA(M1043I). The settings on record: Compound Concentration 1000 nM, read-out: Percent Control.
Excerpt: as §1

In a further series the target is T13, PRKX (Homo sapiens, UniProt P51817).
T13 construct: purchased Eurofins DiscoverX KINOMEscan
Kind of series: KINOMEscan 1 μM, PRKX. Type of series: binding. The settings on record: 1000 nM; Entrez PRKX; read-out: Percent Control.
Excerpt: as §1

The target of another series is T14, ERN1 (Homo sapiens, UniProt O75460).
T14 construct: purchased Eurofins DiscoverX KINOMEscan
Kind of series: KINOMEscan at 1 μM, ERN1. Type of series: binding. To be noted: 1000 nM, read-out: Percent Control. From the text:
(§2) Supplement cells-12-00287-s001.zip/File S2. KinomeScan data for the CAMKK2 probe and negative control.xlsx, sheet "SGC-CAMKK2-1N" | column: Percent Control

Another series has as its target T15, MARK1 (Homo sapiens, UniProt Q9P0L2).
T15 construct: purchased Eurofins DiscoverX KINOMEscan
Kind of series: KINOMEscan at 1 μM, MARK1. Type of series: binding. To be noted: 1000 nM, read-out: Percent Control.
Excerpt: as §2

The target of the next series is T16, SGK2 (Homo sapiens, UniProt Q9HBY8).
T16 construct: purchased Eurofins DiscoverX KINOMEscan
Briefly: KINOMEscan at 1 μM, SGK2. Format: binding. The settings on record: 1000 nM, read-out: Percent Control.
Excerpt: as §2

The target of a further series is T17, EGFR(E746-A750del) (Homo sapiens, UniProt P00533, DEL746-750).
T17 construct: purchased Eurofins DiscoverX KINOMEscan
Kind of series: KINOMEscan at 1 μM, EGFR(E746-A750del). Type of series: binding. The settings on record: 1000 nM, read-out: Percent Control.
Excerpt: as §2

The target of another series is T18, DYRK1B (Homo sapiens, UniProt Q9Y463).
T18 construct: purchased Eurofins DiscoverX KINOMEscan
T18 sequence (Q9Y463 whole entry): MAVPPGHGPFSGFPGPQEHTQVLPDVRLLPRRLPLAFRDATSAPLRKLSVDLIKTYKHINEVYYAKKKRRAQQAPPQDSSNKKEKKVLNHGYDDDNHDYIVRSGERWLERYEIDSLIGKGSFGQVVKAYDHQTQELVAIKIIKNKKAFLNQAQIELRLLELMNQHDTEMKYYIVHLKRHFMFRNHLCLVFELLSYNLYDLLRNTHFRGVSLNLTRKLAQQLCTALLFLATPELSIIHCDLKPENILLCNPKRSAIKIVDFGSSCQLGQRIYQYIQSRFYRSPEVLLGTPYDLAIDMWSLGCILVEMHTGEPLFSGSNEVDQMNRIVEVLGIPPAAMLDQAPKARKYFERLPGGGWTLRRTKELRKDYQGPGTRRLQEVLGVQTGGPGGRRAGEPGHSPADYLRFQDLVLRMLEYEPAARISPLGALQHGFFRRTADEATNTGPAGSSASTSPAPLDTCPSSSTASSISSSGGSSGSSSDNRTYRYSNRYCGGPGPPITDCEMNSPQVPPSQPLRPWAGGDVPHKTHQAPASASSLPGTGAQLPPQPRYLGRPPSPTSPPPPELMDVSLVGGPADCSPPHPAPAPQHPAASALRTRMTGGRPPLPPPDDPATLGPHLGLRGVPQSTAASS
Kind of series: KINOMEscan at 1 μM, DYRK1B. Type of series: binding. The settings on record: 1000 nM, read-out: Percent Control.
Excerpt: as §2

For another series, the target named is T19, CDK2 (Homo sapiens, UniProt P24941).
T19 construct: purchased Eurofins DiscoverX KINOMEscan
Briefly: KINOMEscan at 1 μM, CDK2. Type of series: binding. The settings on record: 1000 nM, read-out: Percent Control.
Excerpt: as §2

Series [3] concerns the target T20, ABL1(Q252H)-phosphorylated (Homo sapiens, UniProt P00519, Q252H).
T20 construct: purchased Eurofins DiscoverX KINOMEscan
Briefly: KINOMEscan at 1 μM, ABL1(Q252H)-phosphorylated. Type of series: binding. The settings on record: 1000 nM, read-out: Percent Control.
Excerpt: as §2

The target in the next series is T21, NDR2 (Homo sapiens, UniProt Q9Y2H1).
T21 construct: purchased Eurofins DiscoverX KINOMEscan
Kind of series: KINOMEscan at 1 μM, NDR2. Format: binding. To be noted: 1000 nM, read-out: Percent Control.
Excerpt: as §2

The target in a further series is T22, PRKCQ (Homo sapiens, UniProt Q04759).
T22 construct: purchased Eurofins DiscoverX KINOMEscan
Briefly: KINOMEscan binding assay at 1 μM, PRKCQ. The settings on record: Compound Concentration 1000 nM; read-out: Percent Control.
Excerpt: as §2

The target in a further series is T23, ERK8 (Homo sapiens, UniProt Q8TD08).
T23 construct: purchased Eurofins DiscoverX KINOMEscan
T23 sequence (Q8TD08 whole entry): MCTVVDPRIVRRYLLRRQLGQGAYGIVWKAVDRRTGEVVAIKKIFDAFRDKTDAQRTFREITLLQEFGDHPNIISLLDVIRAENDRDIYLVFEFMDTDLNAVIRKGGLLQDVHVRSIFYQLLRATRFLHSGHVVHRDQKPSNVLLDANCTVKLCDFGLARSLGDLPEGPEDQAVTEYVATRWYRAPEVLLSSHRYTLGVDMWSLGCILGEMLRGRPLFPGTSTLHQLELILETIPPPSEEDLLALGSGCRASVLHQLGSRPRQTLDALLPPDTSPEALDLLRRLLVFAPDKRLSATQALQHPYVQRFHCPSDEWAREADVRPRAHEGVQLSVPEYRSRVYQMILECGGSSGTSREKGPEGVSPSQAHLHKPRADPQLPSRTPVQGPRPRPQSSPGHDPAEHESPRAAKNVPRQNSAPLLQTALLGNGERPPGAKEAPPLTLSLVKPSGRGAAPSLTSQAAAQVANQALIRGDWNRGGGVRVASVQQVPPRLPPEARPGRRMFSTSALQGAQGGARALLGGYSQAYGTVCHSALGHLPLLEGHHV
Kind of series: KINOMEscan at 1 μM, ERK8. The settings on record: 1000 nM, read-out: Percent Control. Format: binding.
Excerpt: as §2

Series [4] addresses T24, RPS6KA4(Kin.Dom.1-N-terminal) (Homo sapiens, UniProt O75676).
T24 construct: RPS6KA4(Kin.Dom.1-N-terminal); purchased Eurofins DiscoverX KINOMEscan
Kind of series: KINOMEscan binding assay at 1 μM, RPS6KA4(Kin.Dom.1-N-terminal). The settings on record: Compound Concentration 1000 nM; read-out: Percent Control.
Excerpt: as §2

Another series concerns the target T25, FLT4 (Homo sapiens, UniProt P35916).
T25 construct: purchased Eurofins DiscoverX KINOMEscan
Kind of series: KINOMEscan at 1 μM, FLT4. Format: binding. The settings on record: 1000 nM, read-out: Percent Control.
Excerpt: as §2

The target of the next series is T26, EGFR(L858R,T790M) (Homo sapiens, UniProt P00533, L858R/T790M).
T26 construct: purchased Eurofins DiscoverX KINOMEscan
Briefly: KINOMEscan at 1 μM, EGFR(L858R,T790M). Type of series: binding. To be noted: 1000 nM, read-out: Percent Control.
Excerpt: as §2

In a further series the target is T27, ABL1-phosphorylated (Homo sapiens, UniProt P00519).
T27 construct: purchased Eurofins DiscoverX KINOMEscan
Briefly: KINOMEscan at 1 μM, ABL1-phosphorylated. Type of series: binding. The settings on record: 1000 nM, read-out: Percent Control.
Excerpt: as §2

The record followed here is article PMC9856672, “SGC-CAMKK2-1: A Chemical Probe for CAMKK2” (Cells, 2023).

T10 sequence (Q9BXA7 whole entry): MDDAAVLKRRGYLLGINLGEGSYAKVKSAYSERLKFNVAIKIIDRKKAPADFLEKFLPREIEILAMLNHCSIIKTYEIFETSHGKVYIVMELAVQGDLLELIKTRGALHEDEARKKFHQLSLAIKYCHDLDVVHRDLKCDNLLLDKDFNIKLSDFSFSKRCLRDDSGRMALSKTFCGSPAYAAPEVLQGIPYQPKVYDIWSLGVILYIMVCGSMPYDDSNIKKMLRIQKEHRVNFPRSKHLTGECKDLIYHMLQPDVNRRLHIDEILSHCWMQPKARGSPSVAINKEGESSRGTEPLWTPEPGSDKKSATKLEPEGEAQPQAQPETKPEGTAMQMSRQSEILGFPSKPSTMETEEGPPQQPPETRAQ

Turning to `Cc1cccc(-c2cnc3occ(-c4ccc(C(=O)O)c(C5CCCC5)c4)c3c2)c1` [Compound 5], in series [1], the “plasma concentration / in vivo PK (in words)” value is recorded as “poor in vivo PK”.

For the molecule `Cc1cccc(-c2cnc3occ(-c4ccc(C(=O)O)c(C5CCCC5)c4)c3c2)c1` [SGC-CAMKK2-1 (YL-36)], the remaining binding at 1 µM on LATS2 turned out to be 72%; in [2], 100%; on p38-alpha, 100%; on EPHB2 it was 100%; on EPHA3 it was 100%; at MARK3, 100%. Besides, the remaining binding at 1 µM at PRKG2 was 99%; at STK33, 98%; on ACVR1, 83%; at TSSK1B, 100%; at SLK, 85%; at PIK3CA(M1043I), 100%. At PRKX, the remaining binding at 1 µM came out at 79%.

With `O=C(O)c1ccc(-c2coc3ncc(-c4ccccc4)cc23)cc1Cl` [SGC-CAMKK2-1N (UNC-YL-83)], the remaining binding at 1 µM at ERN1 is 76%; on MARK1 it was 97%; at SGK2 it was 73%; at EGFR(E746-A750del), 100%; on DYRK1B, 94%; at CDK2, 91%. Moreover, the remaining binding at 1 µM in series [3] was determined as 61%; at NDR2 it was 76%; at PRKCQ, 100%; at ERK8, 86%; in series [4] it was 100%; at FLT4 it was 82%. Also, the remaining binding at 1 µM on EGFR(L858R,T790M) came to 83%; on ABL1-phosphorylated, 69%.
